Laboratory results reported in patent publication US20240101576A1, “HETEROCYCLIC INHIBITORS OF EGFR AND/OR HER2, FOR USE IN THE TREATMENT OF CANCER” (Scorpion Therapeutics, Inc., priority 2020, published 2024).

Experiments:
Format in all cases: cell-based
EGFR WT (Ba/F3 cells) = target: T1, EGFR WT (Ba/F3 cells) (Homo sapiens, UniProt P00533); experiment: Inhibitor activity on EGFR-dependent cell growth (CellTiter-Glo, 72 h), Ba/F3 EGFR WT; settings: read-out: BaF3 WT IC50
T1 construct: expressed in transfected cells; host or cells: Ba/F3 (murine pro-B cells), retroviral transduction, puromycin selection, maintained with EGF
T1 sequence (P00533 25-1210): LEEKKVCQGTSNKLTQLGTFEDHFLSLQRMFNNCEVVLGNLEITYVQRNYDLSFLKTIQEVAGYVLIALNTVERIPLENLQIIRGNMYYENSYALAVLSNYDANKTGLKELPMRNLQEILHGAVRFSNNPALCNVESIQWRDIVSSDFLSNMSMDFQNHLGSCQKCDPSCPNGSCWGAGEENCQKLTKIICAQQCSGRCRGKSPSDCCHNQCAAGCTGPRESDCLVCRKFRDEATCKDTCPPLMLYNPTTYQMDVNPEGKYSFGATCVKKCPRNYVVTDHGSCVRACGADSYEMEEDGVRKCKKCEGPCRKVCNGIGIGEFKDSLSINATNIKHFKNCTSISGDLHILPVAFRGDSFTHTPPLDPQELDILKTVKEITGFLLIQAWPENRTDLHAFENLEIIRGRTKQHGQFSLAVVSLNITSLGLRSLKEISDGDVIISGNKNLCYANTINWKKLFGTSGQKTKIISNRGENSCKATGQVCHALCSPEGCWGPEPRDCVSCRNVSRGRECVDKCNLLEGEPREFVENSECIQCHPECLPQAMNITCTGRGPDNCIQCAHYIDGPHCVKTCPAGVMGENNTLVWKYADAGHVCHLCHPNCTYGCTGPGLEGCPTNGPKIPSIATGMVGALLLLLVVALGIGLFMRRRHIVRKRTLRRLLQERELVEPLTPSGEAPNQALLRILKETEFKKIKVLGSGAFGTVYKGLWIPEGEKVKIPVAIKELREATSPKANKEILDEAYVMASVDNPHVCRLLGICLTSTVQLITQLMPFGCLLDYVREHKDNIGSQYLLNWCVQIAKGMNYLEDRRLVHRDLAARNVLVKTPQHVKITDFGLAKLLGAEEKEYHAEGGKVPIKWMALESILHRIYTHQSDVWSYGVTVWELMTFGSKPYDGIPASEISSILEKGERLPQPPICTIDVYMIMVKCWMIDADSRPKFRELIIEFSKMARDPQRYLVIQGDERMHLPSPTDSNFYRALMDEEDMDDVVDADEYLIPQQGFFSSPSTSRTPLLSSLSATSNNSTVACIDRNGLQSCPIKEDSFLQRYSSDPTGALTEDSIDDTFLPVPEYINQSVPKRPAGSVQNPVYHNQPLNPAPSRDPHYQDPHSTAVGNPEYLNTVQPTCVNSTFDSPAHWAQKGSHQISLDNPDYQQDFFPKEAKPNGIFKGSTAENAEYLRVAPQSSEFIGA
How it was run: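 This growth assay used Ba/F3 cells that depend on wild-type EGFR and are kept in EGF without IL3. Compounds were made up as 10 mM DMSO stocks and diluted 3-fold over 10 points. 120 nL went onto 600 cells/well. After 72 hours, 40 μL CellTiter-Glo was added and luminescence read on EnVision after 30 min.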

[1] = target: T2, EGFR exon 20 NPG Ins D770_N771 (Ba/F3 cells) (Homo sapiens, UniProt P00533, INS770NPG); experiment: Inhibitor activity on EGFR-dependent cell growth (CellTiter-Glo, 72 h), Ba/F3 EGFR exon 20 NPG Ins; settings: read-out: BaF3 NPG IC50
T2 construct: expressed in transfected cells; host or cells: Ba/F3 (murine pro-B cells), retroviral transduction, puromycin selection, IL3-independent pool
T2 sequence (P00533 with tags, fused parts or gaps INS770NPG): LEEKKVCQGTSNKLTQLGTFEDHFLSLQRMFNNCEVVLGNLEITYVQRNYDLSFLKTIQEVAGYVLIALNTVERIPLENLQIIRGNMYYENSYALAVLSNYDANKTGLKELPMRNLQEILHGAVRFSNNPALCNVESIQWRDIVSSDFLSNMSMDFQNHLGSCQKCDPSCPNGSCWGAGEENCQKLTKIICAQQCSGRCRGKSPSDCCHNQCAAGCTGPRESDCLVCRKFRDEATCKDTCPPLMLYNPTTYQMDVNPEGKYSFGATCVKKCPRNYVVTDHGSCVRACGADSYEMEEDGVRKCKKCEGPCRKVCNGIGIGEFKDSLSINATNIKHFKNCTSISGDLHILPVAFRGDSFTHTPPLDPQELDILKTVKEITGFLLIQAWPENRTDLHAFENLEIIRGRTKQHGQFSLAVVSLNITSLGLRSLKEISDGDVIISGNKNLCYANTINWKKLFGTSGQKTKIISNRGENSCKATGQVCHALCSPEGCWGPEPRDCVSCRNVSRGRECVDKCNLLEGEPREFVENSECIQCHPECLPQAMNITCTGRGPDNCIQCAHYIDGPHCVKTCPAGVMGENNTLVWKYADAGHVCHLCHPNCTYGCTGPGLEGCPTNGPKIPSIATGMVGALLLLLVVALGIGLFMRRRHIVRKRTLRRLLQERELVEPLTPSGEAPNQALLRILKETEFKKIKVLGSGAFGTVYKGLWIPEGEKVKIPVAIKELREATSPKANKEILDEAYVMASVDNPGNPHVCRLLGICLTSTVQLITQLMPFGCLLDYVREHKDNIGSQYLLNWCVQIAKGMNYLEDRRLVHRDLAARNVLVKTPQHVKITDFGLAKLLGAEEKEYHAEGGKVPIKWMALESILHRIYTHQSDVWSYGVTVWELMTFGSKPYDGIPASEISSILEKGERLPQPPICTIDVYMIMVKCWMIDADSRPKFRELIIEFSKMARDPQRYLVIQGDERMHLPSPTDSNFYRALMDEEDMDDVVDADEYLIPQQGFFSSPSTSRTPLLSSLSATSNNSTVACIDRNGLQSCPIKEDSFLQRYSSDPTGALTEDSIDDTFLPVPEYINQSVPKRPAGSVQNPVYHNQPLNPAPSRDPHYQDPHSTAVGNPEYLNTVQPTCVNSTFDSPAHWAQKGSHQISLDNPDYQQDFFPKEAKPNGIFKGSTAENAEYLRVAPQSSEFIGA
How it was run: (§1)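 IC50s derive from a sigmoidal dose–response fit of CellTiter-Glo signal. The signal was normalised between […]-treated cells and cell-free medium. Ba/F3 mutant-EGFR cells, seeded at 400–800/well depending on the line, had 72 h of exposure to a 10-point, 3-fold compound series.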

[2] = target: T3, EGFR exon 20 ASV Ins V769_D770 (Ba/F3 cells) (Homo sapiens, UniProt P00533, INS769ASV); experiment: Inhibitor activity on EGFR-dependent cell growth (CellTiter-Glo, 72 h), Ba/F3 EGFR exon 20 ASV Ins; settings: read-out: BaF3 ASV IC50
T3 construct: expressed in transfected cells; host or cells: Ba/F3 (murine pro-B cells), retroviral transduction, puromycin selection, IL3-independent pool
T3 sequence (P00533 with tags, fused parts or gaps INS769ASV): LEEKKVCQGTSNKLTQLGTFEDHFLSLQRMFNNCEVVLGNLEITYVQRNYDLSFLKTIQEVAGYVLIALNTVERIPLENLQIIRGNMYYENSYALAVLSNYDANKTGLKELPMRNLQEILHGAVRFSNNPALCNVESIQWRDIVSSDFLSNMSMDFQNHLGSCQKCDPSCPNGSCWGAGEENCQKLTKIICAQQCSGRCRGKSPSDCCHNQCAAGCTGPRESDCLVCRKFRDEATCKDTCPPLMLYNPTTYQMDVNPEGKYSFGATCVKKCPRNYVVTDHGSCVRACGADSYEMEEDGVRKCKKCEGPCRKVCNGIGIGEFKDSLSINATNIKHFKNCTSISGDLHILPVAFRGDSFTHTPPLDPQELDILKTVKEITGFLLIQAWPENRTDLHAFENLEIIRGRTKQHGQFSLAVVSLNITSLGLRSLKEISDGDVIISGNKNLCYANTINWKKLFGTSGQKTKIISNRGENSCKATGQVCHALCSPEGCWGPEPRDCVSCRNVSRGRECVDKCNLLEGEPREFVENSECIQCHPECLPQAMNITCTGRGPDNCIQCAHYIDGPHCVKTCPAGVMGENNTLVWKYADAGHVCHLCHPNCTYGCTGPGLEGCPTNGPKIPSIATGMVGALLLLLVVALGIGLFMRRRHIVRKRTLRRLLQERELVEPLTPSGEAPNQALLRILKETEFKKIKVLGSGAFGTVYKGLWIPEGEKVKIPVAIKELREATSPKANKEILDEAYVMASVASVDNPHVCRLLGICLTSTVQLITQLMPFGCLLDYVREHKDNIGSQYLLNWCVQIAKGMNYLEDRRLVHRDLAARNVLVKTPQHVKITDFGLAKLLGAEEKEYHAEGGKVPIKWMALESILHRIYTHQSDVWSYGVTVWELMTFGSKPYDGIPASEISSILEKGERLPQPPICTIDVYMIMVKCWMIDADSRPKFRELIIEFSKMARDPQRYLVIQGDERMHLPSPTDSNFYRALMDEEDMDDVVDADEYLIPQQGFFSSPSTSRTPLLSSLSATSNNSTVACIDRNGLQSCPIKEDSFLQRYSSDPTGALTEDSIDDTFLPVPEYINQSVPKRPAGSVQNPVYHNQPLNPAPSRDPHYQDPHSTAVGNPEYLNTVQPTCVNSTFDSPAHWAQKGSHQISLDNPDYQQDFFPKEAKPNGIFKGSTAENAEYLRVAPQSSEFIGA
How it was run: as §1

[3] = target: T4, EGFR exon 20 SVD Ins D770_N771 (Ba/F3 cells) (Homo sapiens, UniProt P00533, INS770SVD); experiment: Inhibitor activity on EGFR-dependent cell growth (CellTiter-Glo, 72 h), Ba/F3 EGFR exon 20 SVD Ins; settings: read-out: BaF3 SVD IC50
T4 construct: expressed in transfected cells; host or cells: Ba/F3 (murine pro-B cells), retroviral transduction, puromycin selection, IL3-independent pool
T4 sequence (P00533 with tags, fused parts or gaps INS770SVD): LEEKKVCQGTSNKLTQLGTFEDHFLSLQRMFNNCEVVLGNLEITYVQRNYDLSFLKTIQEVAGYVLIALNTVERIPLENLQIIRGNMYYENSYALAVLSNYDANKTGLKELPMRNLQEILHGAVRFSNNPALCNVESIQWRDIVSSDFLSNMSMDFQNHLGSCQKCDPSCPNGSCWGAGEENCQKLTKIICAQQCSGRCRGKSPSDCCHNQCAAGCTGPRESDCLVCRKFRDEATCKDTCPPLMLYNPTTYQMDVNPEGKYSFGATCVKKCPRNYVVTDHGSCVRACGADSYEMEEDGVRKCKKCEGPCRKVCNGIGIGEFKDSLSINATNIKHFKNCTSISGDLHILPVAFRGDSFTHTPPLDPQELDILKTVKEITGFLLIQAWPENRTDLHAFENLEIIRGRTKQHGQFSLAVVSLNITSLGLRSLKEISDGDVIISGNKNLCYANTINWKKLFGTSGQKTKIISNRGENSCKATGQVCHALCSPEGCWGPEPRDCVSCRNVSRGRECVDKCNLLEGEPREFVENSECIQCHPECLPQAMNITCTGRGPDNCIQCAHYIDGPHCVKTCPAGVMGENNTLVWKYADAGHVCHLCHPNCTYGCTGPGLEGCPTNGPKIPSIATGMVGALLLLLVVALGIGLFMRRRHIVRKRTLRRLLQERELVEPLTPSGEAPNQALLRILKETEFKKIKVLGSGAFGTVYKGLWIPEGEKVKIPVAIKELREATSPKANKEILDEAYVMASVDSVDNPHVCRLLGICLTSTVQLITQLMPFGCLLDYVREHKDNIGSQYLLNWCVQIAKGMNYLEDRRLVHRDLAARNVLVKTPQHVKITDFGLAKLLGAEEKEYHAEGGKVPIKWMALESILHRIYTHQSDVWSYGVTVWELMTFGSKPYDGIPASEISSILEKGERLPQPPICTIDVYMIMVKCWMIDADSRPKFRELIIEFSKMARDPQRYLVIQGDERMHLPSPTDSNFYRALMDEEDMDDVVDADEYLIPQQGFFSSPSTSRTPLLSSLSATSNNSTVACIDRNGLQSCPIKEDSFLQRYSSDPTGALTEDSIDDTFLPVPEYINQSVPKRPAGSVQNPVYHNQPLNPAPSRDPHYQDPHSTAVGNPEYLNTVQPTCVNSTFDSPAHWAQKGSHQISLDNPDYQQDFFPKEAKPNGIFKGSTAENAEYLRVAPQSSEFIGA
How it was run: as §1

[4] = target: T5, EGFR exon 20 FQEA Ins A763_V764 (Ba/F3 cells) (Homo sapiens, UniProt P00533, INS763FQEA); experiment: Inhibitor activity on EGFR-dependent cell growth (CellTiter-Glo, 72 h), Ba/F3 EGFR exon 20 FQEA Ins; settings: read-out: BaF3 FQEA IC50
T5 construct: expressed in transfected cells; host or cells: Ba/F3 (murine pro-B cells), retroviral transduction, puromycin selection, IL3-independent pool
How it was run: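 For each mutant line, growth depends on EGFR signalling in the absence of IL3. Density per well: 400 for L858R, 600 for the C797S double mutant, 800 for exon 19del and FQEA. Ten threefold dilutions were applied for 72 h. %Inhibition = 100×(DMSO − sample)/(DMSO − medium blank).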

Row | IC50 (EGFR WT (Ba/F3 cells)) | IC50 [1] | IC50 [2] | IC50 [3] | IC50 [4] | Structure (SMILES)
1 | > 1000 nM | > 1000 nM | > 1000 nM | > 1000 nM | > 1000 nM | COc1c(F)cccc1Nc1c(-c2ccncc2F)[nH]c2c1C(=O)NC[C@@H]2CC1COC1 [469b]
2 | 100 to 1000 nM | < 100 nM | < 100 nM | < 100 nM | 100 to 1000 nM | COc1c(Cl)cccc1Nc1c(-c2ccnc3ccc(OCC4CN(C)C4)nc23)[nH]c2c1C(=O)NCC2 [compound 738, 3-[(3-chloro-2-methoxyphenyl)amino]-2-[6-[(1-methylazetidin-3-yl)methoxy]-1,5-naphthyridin-4-yl]-1H,5H,6H,7H-pyrrolo[3,2-c]pyridin-4-one]
3 | < 100 nM | < 100 nM | < 100 nM | < 100 nM | < 100 nM | COc1c(Cl)cccc1Nc1c(-c2ccnc3ccc(OC4(C)CC4)nc23)[nH]c2c1C(=O)NCC2 [Compound 767, 3-[(3-chloro-2-methoxyphenyl)amino]-2-[6-(1-methylcyclopropoxy)-1,5-naphthyridin-4-yl]-1H,5H,6H,7H-pyrrolo[3,2-c]pyridin-4-one]
4 | 100 to 1000 nM | < 100 nM | < 100 nM | < 100 nM | < 100 nM | COc1c(Cl)cccc1Nc1c(-c2ccnc3ccc(O[C@@H]4CCCOC4)nc23)[nH]c2c1C(=O)NCC2 [compound 742, 3-[(3-chloro-2-methoxyphenyl)amino]-2-[6-[(3R)-oxan-3-yloxy]-1,5-naphthyridin-4-yl]-1H,5H,6H,7H-pyrrolo[3,2-c]pyridin-4-one; formic acid]

Second part, the compound before the results:

Row | Structure (SMILES) | IC50 (EGFR WT (Ba/F3 cells)) | IC50 [1] | IC50 [2] | IC50 [3] | IC50 [4]
5 | CCO[C@H](C)c1ccc2nccc(-c3[nH]c4c(c3Nc3cccc(Cl)c3OC)C(=O)NCC4)c2n1 [compound 753, 3-[(3-chloro-2-methoxyphenyl)amino]-2-[6-[(1R)-1-ethoxyethyl]-1,5-naphthyridin-4-yl]-1H,5H,6H,7H-pyrrolo[3,2-c]pyridin-4-one; trifluoroacetic acid] | < 100 nM | < 100 nM | < 100 nM | < 100 nM | < 100 nM
6 | COc1c(Cl)cccc1Nc1c(-c2ccnc3ccc(OCCN(C)C)nc23)[nH]c2c1C(=O)NCC2 [compound 736, 3-[(3-chloro-2-methoxyphenyl)amino]-2-[6-[2-(dimethylamino)ethoxy]-1,5-naphthyridin-4-yl]-1H,5H,6H,7H-pyrrolo[3,2-c] pyridin-4-one; formic acid] | 100 to 1000 nM | 100 to 1000 nM | < 100 nM | < 100 nM | 100 to 1000 nM
7 | COc1c(F)cccc1Nc1c(-c2ccncc2F)[nH]c2c1C(=O)NC[C@@H]2C[C@@H]1COCCO1 [Compound 526, (7S)-7-[(2R)-1,4-dioxan-2-ylmethyl]-3-[(3-fluoro-2-methoxyphenyl)amino]-2-(3-fluoropyridin-4-yl)-1H,5H,6H,7H-pyrrolo[3,2-c]pyridin-4-one] | > 1000 nM | 100 to 1000 nM | 100 to 1000 nM | 100 to 1000 nM | 100 to 1000 nM
8 | COc1c(Cl)cccc1Nc1c(-c2ccnc3ccc(OC4COC4)nc23)[nH]c2c1C(=O)NCC2 [compound 732, 3-[(3-chloro-2-methoxyphenyl)amino]-2-[6-(oxetan-3-yloxy)-1,5-naphthyridin-4-yl]-1H,5H,6H,7H-pyrrolo[3,2-c]pyridin-4-one] | < 100 nM | < 100 nM | < 100 nM | < 100 nM | < 100 nM
9 | COc1c(Cl)cccc1Nc1c(-c2ccnc3cccnc23)[nH]c2c1C(=O)NCC2 [Compound 683, 3-[(3-chloro-2-methoxyphenyl)amino]-2-(1,5-naphthyridin-4-yl)-1H,5H,6H,7H-pyrrolo[3,2-c]pyridin-4-one] | 100 to 1000 nM | < 100 nM | < 100 nM | < 100 nM | < 100 nM
